Laboratory results: patent US12371428B2 (Exelixis, Inc., priority 2019, dated 2025)

How the values were obtained:
[1] = target: Human MET (residues 956-1390) (Homo sapiens (Human), UniProt P08581); experiment: Human Met kinase assay, HTRF KinEase (Example D-2); format: biochemical; conditions: protocol of Example D-2 (other compounds); read-out: c-Met IC50
How it was run: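 HTRF KinEase assay on MET residues 956-1390 (0.1 ng/well) in buffer with 5 mM MgCl2, 1 mM DTT and 1 mM MnCl2, with biotinylated peptide substrate, ATP at Km, 10 compound concentrations and 3% DMSO final, run 40 min at room temperature. The […] signal was normalized to DMSO and to 1 μM reference compound, and IC50 came from a 4-parameter logistic fit.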

[2] = target: Mer (phospho-Mer, MERTK-transfected 293A cells) (Homo sapiens (Human), UniProt Q12866); experiment: Mer autophosphorylation ELISA in transient transfected 293A cells (Example H); format: cell-based; conditions: cellular activity; Mer autophosphorylation ELISA in transient transfected 293A cells
Chain of Mer (phospho-Mer, MERTK-transfected 293A cells) (Q12866 21-999): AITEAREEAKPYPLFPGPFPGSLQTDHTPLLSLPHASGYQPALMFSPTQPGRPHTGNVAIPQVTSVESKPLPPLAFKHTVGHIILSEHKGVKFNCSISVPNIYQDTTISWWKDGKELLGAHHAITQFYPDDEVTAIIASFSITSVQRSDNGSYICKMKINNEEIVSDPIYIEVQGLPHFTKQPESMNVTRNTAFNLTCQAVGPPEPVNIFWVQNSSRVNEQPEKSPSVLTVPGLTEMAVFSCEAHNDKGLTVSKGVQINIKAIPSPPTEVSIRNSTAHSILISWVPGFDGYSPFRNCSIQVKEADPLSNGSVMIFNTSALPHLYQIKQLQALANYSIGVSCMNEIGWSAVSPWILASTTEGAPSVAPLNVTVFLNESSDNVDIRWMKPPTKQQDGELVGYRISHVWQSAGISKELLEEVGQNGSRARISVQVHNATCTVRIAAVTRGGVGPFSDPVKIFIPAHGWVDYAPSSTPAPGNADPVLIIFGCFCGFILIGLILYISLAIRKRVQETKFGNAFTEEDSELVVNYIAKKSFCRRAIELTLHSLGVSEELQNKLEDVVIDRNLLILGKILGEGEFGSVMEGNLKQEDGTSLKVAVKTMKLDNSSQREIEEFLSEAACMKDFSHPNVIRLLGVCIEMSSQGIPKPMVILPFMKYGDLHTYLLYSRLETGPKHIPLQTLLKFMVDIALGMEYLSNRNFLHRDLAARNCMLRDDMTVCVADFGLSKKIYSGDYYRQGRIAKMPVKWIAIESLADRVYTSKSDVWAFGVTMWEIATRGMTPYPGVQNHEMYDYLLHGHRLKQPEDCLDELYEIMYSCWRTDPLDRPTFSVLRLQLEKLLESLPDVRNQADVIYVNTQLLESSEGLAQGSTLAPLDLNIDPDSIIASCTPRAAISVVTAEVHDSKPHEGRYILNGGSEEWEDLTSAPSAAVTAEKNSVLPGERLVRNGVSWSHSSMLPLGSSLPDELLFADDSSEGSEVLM
How it was run: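 Human MERTK transiently transfected into 293A cells; compounds as 8-point dose curve in serum-free medium (0.3% DMSO final), 1 h. Lysates assayed by phospho-Mer sandwich ELISA against phospho-Mer standard; DMSO = 100%, reference inhibitor = 0% activity; IC50 from 4-parameter logistic fit.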

Chain of Human MET (residues 956-1390) (P08581 956-1390): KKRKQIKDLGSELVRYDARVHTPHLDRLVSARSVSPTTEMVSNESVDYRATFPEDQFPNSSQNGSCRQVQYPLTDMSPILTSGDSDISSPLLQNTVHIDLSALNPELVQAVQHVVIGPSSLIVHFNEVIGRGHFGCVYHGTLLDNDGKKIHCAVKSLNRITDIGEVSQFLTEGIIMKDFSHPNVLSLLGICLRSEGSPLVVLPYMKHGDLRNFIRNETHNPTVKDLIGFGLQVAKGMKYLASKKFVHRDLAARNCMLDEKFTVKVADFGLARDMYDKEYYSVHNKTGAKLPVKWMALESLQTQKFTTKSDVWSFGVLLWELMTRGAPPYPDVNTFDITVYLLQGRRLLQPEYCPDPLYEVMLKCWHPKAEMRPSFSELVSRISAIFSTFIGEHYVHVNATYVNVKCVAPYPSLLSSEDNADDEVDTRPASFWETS

Compound | IC50 [1] [nM] | IC50 [2] [nM]
COc1cnc2c(Oc3ccc(NC(=O)c4ncc(C)n(-c5ccc(F)cc5)c4=O)cc3F)ccnc2c1 [Compound 94, N-[3-Fluoro-4-[(7-methoxy-1,5-naphthyridin-4-yl)oxy]phenyl]-4-(4-fluorophenyl)-5-methyl-3-oxopyrazine-2-carboxamide] | < 100 | < 100
COc1ccc2nccc(Oc3ccc(NC(=O)c4c(C)nc(C)c(-c5ccc(F)cc5C)c4O)cc3F)c2n1 [Compound 70, N-[3-Fluoro-4-[(6-methoxy-1,5-naphthyridin-4-yl)oxy]phenyl]-5-(4-fluoro-2-methylphenyl)-4-hydroxy-2,6-dimethylpyridine-3-carboxamide] | < 100 | < 100
COc1cc2nccc(Oc3ccc(NC(=O)c4cn(C5CC5)c(C)c(-c5ccc(F)cc5C)c4=O)cc3F)c2nc1OC [Compound 439, 1-cyclopropyl-N-[4-[(6,7-dimethoxy-1,5-naphthyridin-4-yl)oxy]-3-fluorophenyl]-5-(4-fluoro-2-methylphenyl)-6-methyl-4-oxopyridine-3-carboxamide] | 100 to 300 | < 100
COc1cc2nccc(Oc3ccc(NC(=O)c4ncc(C)n(-c5ccc(F)cc5)c4=O)cc3F)c2nc1OC [Compound 93, N-[4-[(6,7-Dimethoxy-1,5-naphthyridin-4-yl)oxy]-3-fluorophenyl]-4-(4-fluorophenyl)-5-methyl-3-oxopyrazine-2-carboxamide] | < 100 | < 100
COc1cc2nccc(Oc3ccc(NC(=O)c4cn(-c5cn[nH]c5)cc(-c5ccc(F)cc5)c4=O)cc3F)c2nc1OC [Compound 62, N-[4-[(6,7-Dimethoxy-1,5-naphthyridin-4-yl)oxy]-3-fluorophenyl]-5-(4-fluorophenyl)-4-oxo-1-(1H-pyrazol-4-yl)pyridine-3-carboxamide] | < 100 | < 100
COc1cc2nccc(Oc3ccc(NC(=O)c4c(C)nc(O)c(-c5ccc(F)cc5)c4O)cc3F)c2nc1OC [Compound 443, N-[4-[(6,7-dimethoxy-1,5-naphthyridin-4-yl)oxy]-3-fluorophenyl]-5-(4-fluorophenyl)-4,6-dihydroxy-2-methylpyridine-3-carboxamide] | < 100 | < 100
COc1cc2nccc(Oc3ccc(NC(=O)c4nc(C)c(C)n(-c5ccc(F)cc5)c4=O)cc3F)c2nc1OC [Compound 95, N-[4-[(6,7-Dimethoxy-1,5-naphthyridin-4-yl)oxy]-3-fluorophenyl]-4-(4-fluorophenyl)-5,6-dimethyl-3-oxopyrazine-2-carboxamide] | < 100 | < 100
COc1cc2nccc(Oc3ccc(NC(=O)c4cn(C)c(CF)c(-c5ccc(F)cc5)c4=O)cc3F)c2nc1OC [Compound 73, N-[4-[(6,7-Dimethoxy-1,5-naphthyridin-4-yl)oxy]-3-fluorophenyl]-6-(fluoromethyl)-5-(4-fluorophenyl)-1-methyl-4-oxopyridine-3-carboxamide] | < 100 | < 100
CCOc1c(-c2ccc(F)cc2)cnc(C)c1C(=O)Nc1ccc(Oc2ccnc3cc(OC)c(OC)nc23)c(F)c1 [Compound 403, N-[4-[(6,7-dimethoxy-1,5-naphthyridin-4-yl)oxy]-3-fluorophenyl]-4-ethoxy-5-(4-fluorophenyl)-2-methylpyridine-3-carboxamide] | 100 to 300 | < 100
COc1cc2nccc(Oc3ccc(NC(=O)c4cnc(C)c(-c5ccc(F)cc5)c4O)cc3F)c2nc1OC(C)C [Compound 415, N-[3-fluoro-4-[(7-methoxy-6-propan-2-yloxy-1,5-naphthyridin-4-yl)oxy]phenyl]-5-(4-fluorophenyl)-4-hydroxy-6-methylpyridine-3-carboxamide] | < 100 | < 100
CNc1c(-c2ccc(F)cc2)c(=O)c(C(=O)Nc2ccc(Oc3ccnc4cc(OC)c(OC)nc34)c(F)c2)cn1C [Compound 76, N-[4-[(6,7-Dimethoxy-1,5-naphthyridin-4-yl)oxy]-3-fluorophenyl]-5-(4-fluorophenyl)-1-methyl-6-(methylamino)-4-oxopyridine-3-carboxamide] | < 100 | < 100
COc1cc2nccc(Oc3ccc(NC(=O)c4c5n(cc(-c6ccc(F)cc6)c4=O)CCC5)cc3F)c2cc1OC [Compound 409, N-[4-(6,7-dimethoxyquinolin-4-yl)oxy-3-fluorophenyl]-6-(4-fluorophenyl)-7-oxo-2,3-dihydro-1H-indolizine-8-carboxamide] | < 100 | < 100
COc1cc2nccc(Oc3ccc(NC(=O)c4cn(C5CC5)c(C)c(-c5ccc(F)cc5C)c4=O)cc3)c2nc1OC [Compound 440, 1-cyclopropyl-N-[4-[(6,7-dimethoxy-1,5-naphthyridin-4-yl)oxy]phenyl]-5-(4-fluoro-2-methylphenyl)-6-methyl-4-oxopyridine-3-carboxamide] | < 100 | < 100
COc1cc2nccc(Oc3ccc(NC(=O)c4cnc(C)c(-c5ccc(F)cc5C)c4O)cc3F)c2nc1OC(C)C [Compound 416, N-[3-fluoro-4-[(7-methoxy-6-propan-2-yloxy-1,5-naphthyridin-4-yl)oxy]phenyl]-5-(4-fluoro-2-methylphenyl)-4-hydroxy-6-methylpyridine-3-carboxamide] | < 100 | < 100
CCn1cc(-c2ccc(F)cc2)c(=O)c(C(=O)Nc2ccc(Oc3ccnc4cc(OC)c(OC)nc34)c(F)c2)c1C [Compound 82, N-[4-[(6,7-Dimethoxy-1,5-naphthyridin-4-yl)oxy]-3-fluorophenyl]-1-ethyl-5-(4-fluorophenyl)-2-methyl-4-oxopyridine-3-carboxamide] | < 100 | < 100
COc1cnc2c(Oc3ccc(NC(=O)c4c(C)ncc(-c5ccc(F)cc5)c4O)cc3F)ccnc2c1 [Compound 80, N-[3-Fluoro-4-[(7-methoxy-1,5-naphthyridin-4-yl)oxy]phenyl]-5-(4-fluorophenyl)-4-hydroxy-2-methylpyridine-3-carboxamide] | < 100 | < 100
COc1cc2nccc(Oc3ccc(NC(=O)c4ncnc(-c5ccc(F)cc5)c4O)cc3F)c2nc1OC [Compound 96, N-[4-[(6,7-Dimethoxy-1,5-naphthyridin-4-yl)oxy]-3-fluorophenyl]-6-(4-fluorophenyl)-5-hydroxypyrimidine-4-carboxamide] | < 100 | < 100
CCc1cnc2c(Oc3ccc(NC(=O)c4cnc(C)c(-c5ccc(F)cc5C)c4O)cc3F)ccnc2c1 [Compound 419, N-[4-[(7-ethyl-1,5-naphthyridin-4-yl)oxy]-3-fluorophenyl]-5-(4-fluoro-2-methylphenyl)-4-hydroxy-6-methylpyridine-3-carboxamide] | < 100 | < 100
COc1cc2nccc(Oc3ccc(NC(=O)c4cn(-c5cc[nH]n5)cc(-c5ccc(F)cc5)c4=O)cc3F)c2nc1OC [Compound 61, N-[4-[(6,7-Dimethoxy-1,5-naphthyridin-4-yl)oxy]-3-fluorophenyl]-5-(4-fluorophenyl)-4-oxo-1-(1H-pyrazol-3-yl)pyridine-3-carboxamide] | < 100 | < 100
COCCOc1nc2c(Oc3ccc(NC(=O)c4cnc(C)c(-c5ccc(F)cc5)c4O)cc3)ccnc2cc1C [Compound 437, 5-(4-fluorophenyl)-4-hydroxy-N-[4-[[6-(2-methoxyethoxy)-7-methyl-1,5-naphthyridin-4-yl]oxy]phenyl]-6-methylpyridine-3-carboxamide] | < 100 | < 100
